# How the values were obtained:
# Test in all cases: Cell viability drug screen, 12-point dose-response AUC
# Type in all cases: cell-based, human
# NCC24 = NCC24 cells, 72 hours
# Procedure, shortened: (§1)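 Dose-response AUC reflects 72 h drug exposure of gastric cancer cells in a 12-point, half-log format, with viability read by luminescence and normalized to DMSO (0.5%).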
# MKN1 = MKN1 cells, 72 hours
# Procedure, shortened: as §1
# SNU16 = SNU16 cells, 72 hours
# Procedure, shortened: as §1
# NCC19 = NCC19 cells, 72 hours
# Procedure, shortened: as §1
# SNU638 = SNU638 cells, 72 hours
# Procedure, shortened: as §1
# SNU620 = SNU620 cells, 72 hours
# Procedure, shortened: as §1
# OCUM1 = OCUM1 cells, 72 hours
# Procedure, shortened: as §1
# MKN74 = MKN74 cells, 72 hours
# Procedure, shortened: (§2)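 Viability: luminescence (Glo kit, 15 min RT), normalized to 0.5% DMSO vehicle. Dosing: half-log, 12 concentrations, 72 h. Cells: 5×10^3/well, treated 24 h after plating. Value: trapezoidal AUC, mean of repeats.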
# SK4 = details: 72 hours; for Average Area Under the Viability Curve (AUC), AUC norm value: SK4 cells (SEM subtype)
# Procedure, shortened: as §1
# SNU601 = SNU601 cells, 72 hours
# Procedure, shortened: as §1
# SNU484 = details: 72 hours; for Average Area Under the Viability Curve (AUC), AUC norm value: SNU484 cells (SEM subtype)
# Procedure, shortened: as §1
# SNU1967 = SNU1967 cells, 72 hours
# Procedure, shortened: as §1
# SNU668 = details: 72 hours; for Average Area Under the Viability Curve (AUC), AUC norm value: SNU668 cells (SEM subtype)
# Procedure, shortened: as §1
# KATO3 = KATO3 cells, 72 hours
# Procedure, shortened: as §1
# YCC3 = YCC3 cells, 72 hours
# Procedure, shortened: as §1
# SNU719 = SNU719 cells, 72 hours
# Procedure, shortened: as §2
# YCC11 = details: 72 hours; for Average Area Under the Viability Curve (AUC), AUC norm value: YCC11 cells (SEM subtype)
# Procedure, shortened: as §1
# Hs746T = details: 72 hours; for Average Area Under the Viability Curve (AUC), AUC norm value: Hs746T cells (SEM subtype)
# Procedure, shortened: as §1
# SNU1 = SNU1 cells, 72 hours
# Procedure, shortened: as §1
# YCC2 = YCC2 cells, 72 hours
# Procedure, shortened: as §1
# NCC20 = NCC20 cells, 72 hours
# Procedure, shortened: as §1
# MKN28 = MKN28 cells, 72 hours
# Procedure, shortened: as §1
# NCI_N87 = NCI_N87 cells, 72 hours
# Procedure, shortened: as §1
# AGS = details: 72 hours; for Average Area Under the Viability Curve (AUC), AUC norm value: AGS cells (non-SEM subtype)
# Procedure, shortened: as §2
# NCC59 = NCC59 cells, 72 hours
# Procedure, shortened: as §1
# SNU1750 = details: 72 hours; for Average Area Under the Viability Curve (AUC), AUC norm value: SNU1750 cells (SEM subtype)
# Procedure, shortened: as §1
# MKN45 = details: 72 hours; for Average Area Under the Viability Curve (AUC), AUC norm value: MKN45 cells (non-SEM subtype)
# Procedure, shortened: as §2
# SNU216 = details: 72 hours; for Average Area Under the Viability Curve (AUC), AUC norm value: SNU216 cells (non-SEM subtype)
# Procedure, shortened: as §2
# FU97 = tested on: FU97; design: Average Area Under the Viability Curve (AUC), AUC norm value: scale not given here; details: FU97 cells, 72 hours
# Procedure, shortened: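 Trapezoidal AUC of a 12-point, DMSO-normalized dose-response curve. Luminescent viability was measured after 72 h of exposure at 37° C to half-log serial dilutions (0.5% DMSO control), dosed 24 h after plating FU97 cells at 5×10^3 per well.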
compound,measurement,setting,value
"COc1cccc2c1C(=O)c1c(O)c3c(c(O)c1C2=O)C[C@@](O)(C(=O)CO)C[C@@H]3O[C@H]1C[C@H](N)[C@H](O)[C@H](C)O1 [Doxorubicin (Adriamycin), Doxorubicin]","Average Area Under the Viability Curve (AUC), AUC norm value",NCC24,−0.6126
same,"Average Area Under the Viability Curve (AUC), AUC norm value",MKN1,−0.2016
same,"Average Area Under the Viability Curve (AUC), AUC norm value",SNU16,−0.0398
same,"Average Area Under the Viability Curve (AUC), AUC norm value",NCC19,2.867
same,"Average Area Under the Viability Curve (AUC), AUC norm value",SNU638,−0.3342
same,"Average Area Under the Viability Curve (AUC), AUC norm value",SNU620,−0.2009
same,"Average Area Under the Viability Curve (AUC), AUC norm value",OCUM1,0.6788
same,"Average Area Under the Viability Curve (AUC), AUC norm value",MKN74,1.522
same,"Average Area Under the Viability Curve (AUC), AUC norm value",SK4,0.213
same,"Average Area Under the Viability Curve (AUC), AUC norm value",SNU601,4.481
same,"Average Area Under the Viability Curve (AUC), AUC norm value",SNU484,−0.8418
same,"Average Area Under the Viability Curve (AUC), AUC norm value",SNU1967,−0.8787
same,"Average Area Under the Viability Curve (AUC), AUC norm value",SNU668,−0.3909
same,"Average Area Under the Viability Curve (AUC), AUC norm value",KATO3,7.9338
same,"Average Area Under the Viability Curve (AUC), AUC norm value",YCC3,2.8776
same,"Average Area Under the Viability Curve (AUC), AUC norm value",SNU719,4.66
same,"Average Area Under the Viability Curve (AUC), AUC norm value",YCC11,−1.877
same,"Average Area Under the Viability Curve (AUC), AUC norm value",Hs746T,−0.08449
same,"Average Area Under the Viability Curve (AUC), AUC norm value",SNU1,0
same,"Average Area Under the Viability Curve (AUC), AUC norm value",YCC2,1.4121
same,"Average Area Under the Viability Curve (AUC), AUC norm value",NCC20,−0.4879
same,"Average Area Under the Viability Curve (AUC), AUC norm value",MKN28,2.98
same,"Average Area Under the Viability Curve (AUC), AUC norm value",NCI_N87,6.891
same,"Average Area Under the Viability Curve (AUC), AUC norm value",AGS,−1.081
same,"Average Area Under the Viability Curve (AUC), AUC norm value",NCC59,1.231
same,"Average Area Under the Viability Curve (AUC), AUC norm value",SNU1750,−0.9576
same,"Average Area Under the Viability Curve (AUC), AUC norm value",MKN45,2.505
same,"Average Area Under the Viability Curve (AUC), AUC norm value",SNU216,0.7466
same,"Average Area Under the Viability Curve (AUC), AUC norm value",FU97,−1.237
C/C(=C\c1csc(C)n1)[C@@H]1C[C@@H]2O[C@@H]2CCC[C@H](C)[C@H](O)[C@@H](C)C(=O)C(C)(C)[C@@H](O)CC(=O)O1 [Epothilone A],"area under the viability curve (AUC), normalized",NCC24; 12-point dose-response,−1.8431
same,"area under the viability curve (AUC), normalized",MKN1; 12-point dose-response,−1.14
same,"area under the viability curve (AUC), normalized",SNU16; 12-point dose-response,−1.12
same,"area under the viability curve (AUC), normalized",NCC19; 12-point dose-response,0
same,"area under the viability curve (AUC), normalized",SNU638; 12-point dose-response,0.3118
same,"area under the viability curve (AUC), normalized",SNU620; 12-point dose-response,−2.268
same,"area under the viability curve (AUC), normalized",OCUM1; 12-point dose-response,1.699
same,"area under the viability curve (AUC), normalized",MKN74; 12-point dose-response,0.2913
same,"area under the viability curve (AUC), normalized","SK4; SK4 cells, 12-point dose-response",−0.9541
same,"area under the viability curve (AUC), normalized",SNU601; 12-point dose-response,−0.2006
same,"area under the viability curve (AUC), normalized","SNU484; SNU484 cells, 12-point dose-response",−0.4364
same,"area under the viability curve (AUC), normalized",SNU1967; 12-point dose-response,0.6477
same,"area under the viability curve (AUC), normalized","SNU668; SNU668 cells, 12-point dose-response",−0.2909
same,"area under the viability curve (AUC), normalized",KATO3; 12-point dose-response,4.761
same,"area under the viability curve (AUC), normalized",YCC3; 12-point dose-response,2.8742
same,"area under the viability curve (AUC), normalized",SNU719; 12-point dose-response,4.484
same,"area under the viability curve (AUC), normalized","YCC11; YCC11 cells, 12-point dose-response",−1.2702
same,"area under the viability curve (AUC), normalized","Hs746T; Hs746T cells, 12-point dose-response",1.217
same,"area under the viability curve (AUC), normalized",SNU1; 12-point dose-response,−1.75
same,"area under the viability curve (AUC), normalized",YCC2; 12-point dose-response,0.1784
same,"area under the viability curve (AUC), normalized",NCC20; 12-point dose-response,−0.5459
same,"area under the viability curve (AUC), normalized",MKN28; 12-point dose-response,−1.4393
same,"area under the viability curve (AUC), normalized",NCI_N87; 12-point dose-response,−1.51
same,"area under the viability curve (AUC), normalized","AGS; AGS cells, 12-point dose-response",−1.655
same,"area under the viability curve (AUC), normalized",NCC59; 12-point dose-response,3.583
same,"area under the viability curve (AUC), normalized","SNU1750; SNU1750 cells, 12-point dose-response",1.039
same,"area under the viability curve (AUC), normalized","MKN45; MKN45 cells, 12-point dose-response",0.6604
same,"area under the viability curve (AUC), normalized","SNU216; SNU216 cells, 12-point dose-response",2.403
same,"area under the viability curve (AUC), normalized",FU97; 12-point dose-response,0.9454
"Nc1nc(F)nc2c1ncn2[C@@H]1O[C@H](COP(=O)(O)O)[C@@H](O)[C@@H]1O [Fludarabine Phosphate (Fludara), Fludarabine Phosphate]","Average Area Under the Viability Curve (AUC), AUC norm value",NCC24,1.037
same,"Average Area Under the Viability Curve (AUC), AUC norm value",MKN1,0.9748
same,"Average Area Under the Viability Curve (AUC), AUC norm value",SNU16,−0.44
same,"Average Area Under the Viability Curve (AUC), AUC norm value",NCC19,2.411
same,"Average Area Under the Viability Curve (AUC), AUC norm value",SNU638,0.5006
same,"Average Area Under the Viability Curve (AUC), AUC norm value",SNU620,−2.289
same,"Average Area Under the Viability Curve (AUC), AUC norm value",OCUM1,−0.3967
same,"Average Area Under the Viability Curve (AUC), AUC norm value",MKN74,−0.1731
same,"Average Area Under the Viability Curve (AUC), AUC norm value",SK4,−1.653
same,"Average Area Under the Viability Curve (AUC), AUC norm value",SNU601,−0.5439
same,"Average Area Under the Viability Curve (AUC), AUC norm value",SNU484,1.309
same,"Average Area Under the Viability Curve (AUC), AUC norm value",SNU1967,2.186
same,"Average Area Under the Viability Curve (AUC), AUC norm value",SNU668,−1.511
same,"Average Area Under the Viability Curve (AUC), AUC norm value",KATO3,1.165
same,"Average Area Under the Viability Curve (AUC), AUC norm value",YCC3,0
same,"Average Area Under the Viability Curve (AUC), AUC norm value",SNU719,2.046
same,"Average Area Under the Viability Curve (AUC), AUC norm value",YCC11,−0.6417
same,"Average Area Under the Viability Curve (AUC), AUC norm value",Hs746T,1.97
same,"Average Area Under the Viability Curve (AUC), AUC norm value",SNU1,−0.7644
same,"Average Area Under the Viability Curve (AUC), AUC norm value",YCC2,−0.7765
same,"Average Area Under the Viability Curve (AUC), AUC norm value",NCC20,−2.507
same,"Average Area Under the Viability Curve (AUC), AUC norm value",MKN28,0.00328
same,"Average Area Under the Viability Curve (AUC), AUC norm value",NCI_N87,−0.06169
same,"Average Area Under the Viability Curve (AUC), AUC norm value",AGS,−2.783
same,"Average Area Under the Viability Curve (AUC), AUC norm value",NCC59,1.479
same,"Average Area Under the Viability Curve (AUC), AUC norm value",SNU1750,1.972
same,"Average Area Under the Viability Curve (AUC), AUC norm value",MKN45,−1.029
same,"Average Area Under the Viability Curve (AUC), AUC norm value",SNU216,1.771
same,"Average Area Under the Viability Curve (AUC), AUC norm value",FU97,2.928

# Source: patent US20250129430A1, “HIGH ATP-AFFINITY PROTEIN AS THERAPEUTIC TARGET FOR INTRACTABLE CANCER MOLECULAR SUBTYPES AND INHIBITOR THEREOF” (VeraVerse Co., Ltd., priority 2021, published 2025)
